Legend:
A549 = assay: Cytotoxicity against human A549 cells after 96 hrs by microplate reader analysis; format: functional, cell-based; details: A549, 96 h
HT-29 = assay: Cytotoxicity against human HT-29 cells after 96 hrs by microplate reader analysis; format: functional, cell-based; details: HT-29, 96 h
HCT-116 [1] = assay: Cytotoxicity against human HCT116 cells after 96 hrs by microplate reader analysis; format: functional, cell-based; details: HCT-116, 96 h
Mus musculus [2] = assay: Toxicity in BALB/c mouse assessed as mortality at 0.75 mg/kg/day, iv administered on day 1, 5 and 9; format: organism-based; parameters: route intravenous; details: in vivo
Mus musculus [3] = assay: Toxicity in BALB/c mouse assessed as mortality at 1.5 mg/kg/day, iv administered on day 1, 5 and 9; format: organism-based; parameters: route intravenous; details: in vivo
Liver = assay: Metabolic stability in BALB/c mouse liver microsomes at 1 umol/l by LC-MS/MS analysis; format: ADME; details: 1 µM
HCT-116 [4] = assay: Antitumor activity against human HCT116 cells xenografted in BALB/c mouse assessed as tumor growth inhibition at 0.75 mg/kg/day, iv administered on day 1, 5 and 9 relative to control; format: functional; details: HCT-116, 24 h, read-out: TGI
HCT-116 [5] = assay: Antitumor activity against human HCT116 cells xenografted in BALB/c mouse assessed as tumor growth inhibition at 1.5 mg/kg/day, iv administered on day 1, 5 and 9 relative to control; format: functional; details: HCT-116, 24 h, read-out: TGI
HCT-116 [6] = assay: Antitumor activity against human HCT116 cells xenografted in BALB/c mouse assessed as tumor growth inhibition at 7.5 mg/kg/day, iv administered on day 1, 5 and 9 relative to control; format: functional; details: HCT-116, 24 h, read-out: TGI
HCT-116 [7] = assay: Antitumor activity against human HCT116 cells xenografted in BALB/c mouse assessed as tumor growth inhibition at 15 mg/kg/day, iv administered on day 1, 5 and 9 relative to control; format: functional; details: HCT-116, 24 h, read-out: TGI
Mus musculus [8] = assay: Toxicity in BALB/c mouse assessed as mortality at 1.875 mg/kg/day, iv administered on day 1, 5 and 9; format: organism-based; parameters: route intravenous; details: in vivo
Mus musculus [9] = assay: Toxicity in BALB/c mouse assessed as mortality at 3.75 mg/kg/day, iv administered on day 1, 5 and 9; format: organism-based; parameters: route intravenous; details: in vivo
Mus musculus [10] = assay: Toxicity in BALB/c mouse assessed as mortality at 7.5 mg/kg/day, iv administered on day 1, 5 and 9; format: organism-based; parameters: route intravenous; details: in vivo
Mus musculus [11] = assay: Toxicity in BALB/c mouse assessed as mortality at 15 mg/kg/day, iv administered on day 1, 5 and 9; format: organism-based; parameters: route intravenous; details: in vivo
HCT-116 [12] = assay: Antitumor activity against human HCT116 cells xenografted in BALB/c mouse assessed as tumor growth inhibition at 1.875 mg/kg/day, iv administered on day 1, 5 and 9 relative to control; format: functional; details: HCT-116, 24 h, read-out: TGI
HCT-116 [13] = assay: Antitumor activity against human HCT116 cells xenografted in BALB/c mouse assessed as tumor growth inhibition at 3.75 mg/kg/day, iv administered on day 1, 5 and 9 relative to control; format: functional; details: HCT-116, 24 h, read-out: TGI

| Compound | IC50 (A549) | IC50 (HT-29) | IC50 (HCT-116 [1]) | other results |
| --- | --- | --- | --- | --- |
| COc1c(Cl)c2c(c(OC)c1OC)-c1ccc(OC)c(=O)cc1[C@@H](NC(=O)CCCO)CC2 | 357 nM | 168 nM | 175 nM | – |
| COc1cc(C(=O)N[C@H]2CCc3c(Cl)c(OC)c(OC)c(OC)c3-c3ccc(OC)c(=O)cc32)cc(OC)c1OC | 124 nM | 47.7 nM | 51.7 nM | – |
| COc1c(Cl)c2c(c(OC)c1OC)-c1ccc(OC)c(=O)cc1[C@@H](NC(=O)c1ccccc1[N+](=O)[O-])CC2 | 56.6 nM | 31.7 nM | 30.2 nM | – |
| COc1c(Cl)c2c(c(OC)c1OC)-c1ccc(OC)c(=O)cc1[C@@H](N)CC2 | 241 nM | 225 nM | 207 nM | – |
| COc1c(Cl)c2c(c(OC)c1OC)-c1ccc(OC)c(=O)cc1[C@@H](NC(=O)c1ccc(N(C)C)cc1)CC2 | 169 nM | 148 nM | 150 nM | – |
| COc1c(Cl)c2c(c(OC)c1OC)-c1ccc(OC)c(=O)cc1[C@@H](NC(=O)CCN(C)C)CC2 | 960 nM | 354 nM | 539 nM | – |
| COc1c(Cl)c2c(c(OC)c1OC)-c1ccc(OC)c(=O)cc1[C@@H](NC(=O)c1cc(F)c(F)c(F)c1)CC2 | 6.6 nM | 6.3 nM | 7.2 nM | – |
| COc1c(Cl)c2c(c(OC)c1OC)-c1ccc(OC)c(=O)cc1[C@@H](NC(=O)c1cccc(F)c1)CC2 | 3.5 nM | 1.5 nM | 1.6 nM | – |
| COc1c(Cl)c2c(c(OC)c1OC)-c1ccc(OC)c(=O)cc1[C@@H](NC(=O)c1ccccc1)CC2 | 4.7 nM | 1.6 nM | 1.4 nM | – |
| COc1c(Cl)c2c(c(OC)c1OC)-c1ccc(OC)c(=O)cc1[C@@H](NC(=O)c1cc([N+](=O)[O-])cc([N+](=O)[O-])c1)CC2 | 31.2 nM | 5 nM | 6.8 nM | – |
| COc1c(Cl)c2c(c(OC)c1OC)-c1ccc(OC)c(=O)cc1[C@@H](NC(=O)c1cccc([N+](=O)[O-])c1)CC2 | 1.7 nM | 0.1 nM | 0.8 nM | – |
| COc1cc2c(c(OC)c1OC)-c1ccc(OC)c(=O)cc1[C@@H](NC(C)=O)CC2 [COLCHICINE] | – | – | – | Activity (Mus musculus [2]): Non-toxic; Activity (Mus musculus [3]): Non-toxic; Stability (Liver): 1 µL/min/mg; inhibition in vivo at 0.75 mg/kg/day (HCT-116 [4]): 14%; inhibition in vivo at 1.5 mg/kg/day (HCT-116 [5]): 92.6% |
| CCCCCCC(=O)N[C@H]1CCc2c(Cl)c(OC)c(OC)c(OC)c2-c2ccc(OC)c(=O)cc21 | 49.7 nM | 38.3 nM | 36.9 nM | – |
| COc1c(Cl)c2c(c(OC)c1OC)-c1ccc(OC)c(=O)cc1[C@@H](NC(=O)CCO)CC2 | 230 nM | 46.1 nM | 48.6 nM | – |
| COc1c(Cl)c2c(c(OC)c1OC)-c1ccc(OC)c(=O)cc1[C@@H](NC(=O)CC(C)C)CC2 | 40.3 nM | 16.1 nM | 23.7 nM | – |
| COc1c(Cl)c2c(c(OC)c1OC)-c1ccc(OC)c(=O)cc1[C@@H](NC(=O)CCC(=O)O)CC2 | > 5 µg/mL | 6270 nM | 6580 nM | – |
| COc1c(Cl)c2c(c(OC)c1OC)-c1ccc(OC)c(=O)cc1[C@@H](NC(=O)CS)CC2 | 400 nM | 209 nM | 192 nM | – |
| COc1c(Cl)c2c(c(OC)c1OC)-c1ccc(OC)c(=O)cc1[C@@H](NC(=O)[C@H](C)O)CC2 | 18.7 nM | 8.5 nM | 7.9 nM | – |
| COc1c(Cl)c2c(c(OC)c1OC)-c1ccc(OC)c(=O)cc1[C@@H](NC(=O)c1cccc(C#N)c1)CC2 | 7.4 nM | 1.6 nM | 4.1 nM | – |

| Compound | IC50 (A549) | IC50 (HT-29) | IC50 (HCT-116 [1]) | other results |
| --- | --- | --- | --- | --- |
| CCCC(=O)N[C@H]1CCc2c(Cl)c(OC)c(OC)c(OC)c2-c2ccc(OC)c(=O)cc21 | 9.8 nM | 8.3 nM | 7.6 nM | – |
| CCC(O)(CC)C(=O)N[C@H]1CCc2c(Cl)c(OC)c(OC)c(OC)c2-c2ccc(OC)c(=O)cc21 | 38 nM | 36.5 nM | 38.7 nM | – |
| COc1c(Cl)c2c(c(OC)c1OC)-c1ccc(OC)c(=O)cc1[C@@H](NC(=O)c1ccccc1C#N)CC2 | 140 nM | 49.7 nM | 104 nM | – |
| COc1ccccc1C(=O)N[C@H]1CCc2c(Cl)c(OC)c(OC)c(OC)c2-c2ccc(OC)c(=O)cc21 | 13.2 nM | 12.5 nM | 26.4 nM | – |
| COc1c(Cl)c2c(c(OC)c1OC)-c1ccc(OC)c(=O)cc1[C@@H](NC(=O)c1ccc(C#N)cc1)CC2 | 11.9 nM | 6.7 nM | 6.7 nM | – |
| COc1c(Cl)c2c(c(OC)c1OC)-c1ccc(OC)c(=O)cc1[C@@H](NC(=O)c1ccccc1F)CC2 | 1.7 nM | 1.5 nM | 1.6 nM | – |
| COc1cc(OC)cc(C(=O)N[C@H]2CCc3c(Cl)c(OC)c(OC)c(OC)c3-c3ccc(OC)c(=O)cc32)c1 | 14.2 nM | 7.9 nM | 6.5 nM | – |
| COc1c(Cl)c2c(c(OC)c1OC)-c1ccc(OC)c(=O)cc1[C@@H](NC(=O)C1CCCCC1)CC2 | 10.4 nM | 7.1 nM | 7.2 nM | – |
| COc1c(Cl)c2c(c(OC)c1OC)-c1ccc(OC)c(=O)cc1[C@@H](NC(=O)c1ccccc1N(C)C)CC2 | 206 nM | 186 nM | 171 nM | – |
| COc1cccc(C(=O)N[C@H]2CCc3c(Cl)c(OC)c(OC)c(OC)c3-c3ccc(OC)c(=O)cc32)c1 | 2.7 nM | 1.4 nM | 1.6 nM | – |
| COc1c(Cl)c2c(c(OC)c1OC)-c1ccc(OC)c(=O)cc1[C@@H](NC(=O)CCCC(=O)O)CC2 | 5360 nM | 2250 nM | 3680 nM | – |
| COc1c(Cl)c2c(c(OC)c1OC)-c1ccc(OC)c(=O)cc1[C@@H](NC(=O)c1ccc([N+](=O)[O-])cc1)CC2 | 11.2 nM | 6.9 nM | 6.2 nM | – |
| COc1c(Cl)c2c(c(OC)c1OC)-c1ccc(OC)c(=O)cc1[C@@H](NC(=O)CN(C)C)CC2 | 160 nM | 46 nM | 67 nM | – |
| COc1c(Cl)c2c(c(OC)c1OC)-c1ccc(OC)c(=O)cc1[C@@H](NC(C)=O)CC2 | – | – | – | inhibition in vivo at 7.5 mg/kg/day (HCT-116 [6]): 62.6%; inhibition in vivo at 15 mg/kg/day (HCT-116 [7]): 76.5%; Activity (Mus musculus [8]): Non-toxic; Activity (Mus musculus [9]): Non-toxic; Activity (Mus musculus [10]): Non-toxic; Activity (Mus musculus [11]): Non-toxic; Stability (Liver): 28 µL/min/mg; inhibition in vivo at 1.875 mg/kg/day (HCT-116 [12]): 36.7%; inhibition in vivo at 3.75 mg/kg/day (HCT-116 [13]): 56.4% |
| COc1c(Cl)c2c(c(OC)c1OC)-c1ccc(OC)c(=O)cc1[C@@H](NC(=O)c1ccc(F)cc1)CC2 | 6.7 nM | 2.2 nM | 5.5 nM | – |
| COc1ccc(C(=O)N[C@H]2CCc3c(Cl)c(OC)c(OC)c(OC)c3-c3ccc(OC)c(=O)cc32)cc1 | 3.8 nM | 8 nM | 8 nM | – |
| COc1c(Cl)c2c(c(OC)c1OC)-c1ccc(OC)c(=O)cc1[C@@H](NC(=O)[C@@H](C)O)CC2 | 19.5 nM | 7.2 nM | 7.7 nM | – |
| COc1ccc(C(=O)N[C@H]2CCc3c(Cl)c(OC)c(OC)c(OC)c3-c3ccc(OC)c(=O)cc32)c(OC)c1 | 85.4 nM | 53.1 nM | 57.3 nM | – |
